From ChEMBL document CHEMBL1157550, “Incorporation of fluorinated phenylalanine generates highly specific inhibitor of proteasome's chymotrypsin-like sites” (J Med Chem, 2010)
Each block holds one compound with its values, some of them ahead of it.

Columns and labels:
[1] = biological target: Proteasome subunit beta type-5 (Homo sapiens) (UniProt P28074); experiment: Inhibition of 26S proteasome beta 5 in human HEK293 cell lysate assessed as residual activity at 0.11 uM after 1 hr
[2] = biological target: T1, Proteasome component C5 (Homo sapiens) (UniProt P20618); experiment: (§1) Inhibition of 26S proteasome beta 1 in human HEK293 cell lysate assessed as residual activity at […] after 1 hr; type: cell-free
T1 sequence (whole entry): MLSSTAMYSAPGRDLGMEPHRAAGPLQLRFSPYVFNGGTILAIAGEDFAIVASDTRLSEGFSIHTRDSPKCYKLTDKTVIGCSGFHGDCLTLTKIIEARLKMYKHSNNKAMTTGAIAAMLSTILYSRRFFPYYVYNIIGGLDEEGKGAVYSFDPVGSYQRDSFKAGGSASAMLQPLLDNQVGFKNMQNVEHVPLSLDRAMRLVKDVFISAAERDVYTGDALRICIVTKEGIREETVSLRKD

[3] = biological target: Proteasome Macropain subunit (Homo sapiens) (UniProt P49721); experiment: (§2) Inhibition of 26S proteasome beta 2 in human HEK293 cell lysate assessed as residual activity at […] after 1 hr; type: cell-free
[4] = biological target: T1, Proteasome component C5 (Homo sapiens); experiment: Inhibition of 26S proteasome beta 1 in human HEK293 cell lysate assessed as residual activity at 1 uM after 1 hr; type: cell-free
[5] = biological target: Proteasome Macropain subunit (Homo sapiens) (UniProt P49721); experiment: Inhibition of 26S proteasome beta 2 in human HEK293 cell lysate assessed as residual activity at 1 uM after 1 hr; type: cell-free
[6] = biological target: Proteasome subunit beta type-5 (Homo sapiens) (UniProt P28074); experiment: Inhibition of 26S proteasome beta 5 in human HEK293 cell lysate assessed as residual activity at 1 uM after 1 hr
[7] = biological target: Proteasome Macropain subunit (Homo sapiens) (UniProt P49721); experiment: Inhibition of 26S proteasome beta 2 in human HEK293 cell lysate assessed as residual activity at 0.11 uM after 1 hr; type: cell-free
[8] = biological target: Proteasome subunit beta type-5 (Homo sapiens) (UniProt P28074); experiment: Inhibition of 26S proteasome beta 5 in human HEK293 cell lysate assessed as residual activity at 0.03 uM after 1 hr
[9] = biological target: T1, Proteasome component C5 (Homo sapiens); experiment: Inhibition of 26S proteasome beta 1 in human HEK293 cell lysate assessed as residual activity at 0.11 uM after 1 hr; type: cell-free
[10] = biological target: Proteasome Macropain subunit (Homo sapiens) (UniProt P49721); experiment: Inhibition of 26S proteasome beta 2 in human HEK293 cell lysate assessed as residual activity at 0.03 uM after 1 hr; type: cell-free
[11] = biological target: Proteasome Macropain subunit (Homo sapiens) (UniProt P49721); experiment: Inhibition of 26S proteasome beta 2 in human HEK293 cell lysate assessed as residual activity at 9 uM after 1 hr; type: cell-free
[12] = biological target: T1, Proteasome component C5 (Homo sapiens); experiment: Inhibition of 26S proteasome beta 1 in human HEK293 cell lysate assessed as residual activity at 3 uM after 1 hr; type: cell-free
[13] = biological target: Proteasome subunit beta type-5 (Homo sapiens) (UniProt P28074); experiment: Inhibition of 26S proteasome beta 5 in human HEK293 cell lysate assessed as residual activity at […] after 1 hr
[14] = biological target: T1, Proteasome component C5 (Homo sapiens); experiment: Inhibition of 26S proteasome beta 1 in human HEK293 cell lysate assessed as residual activity at 9 uM after 1 hr; type: cell-free
[15] = biological target: Proteasome subunit beta type-5 (Homo sapiens) (UniProt P28074); experiment: Inhibition of 26S proteasome beta 5 in human HEK293 cell lysate assessed as residual activity at 3 uM after 1 hr
[16] = biological target: Proteasome Macropain subunit (Homo sapiens) (UniProt P49721); experiment: Inhibition of 26S proteasome beta 2 in human HEK293 cell lysate assessed as residual activity at 3 uM after 1 hr; type: cell-free
[17] = biological target: Proteasome subunit beta type-5 (Homo sapiens) (UniProt P28074); experiment: Inhibition of 26S proteasome beta 5 in human HEK293 cell lysate assessed as residual activity at 9 uM after 1 hr
[18] = biological target: T1, Proteasome component C5 (Homo sapiens); experiment: Inhibition of 26S proteasome beta 1 in human HEK293 cell lysate assessed as residual activity at 0.03 uM after 1 hr; type: cell-free
[19] = biological target: T1, Proteasome component C5 (Homo sapiens); experiment: Inhibition of 26S proteasome beta 1 in human HEK293 cell lysate assessed as residual activity at 0.006 uM after 1 hr; type: cell-free
[20] = biological target: T2, Proteasome Macropain subunit MB1 (Homo sapiens) (UniProt P28074); experiment: Displacement of fluorescent labeled MV151 from 26S proteasome beta 5 in human HEK293 cell lysate assessed as residual activity at 100 uM after 1 hr by SDS-PAGE; type: cell-free
T2 sequence (whole entry): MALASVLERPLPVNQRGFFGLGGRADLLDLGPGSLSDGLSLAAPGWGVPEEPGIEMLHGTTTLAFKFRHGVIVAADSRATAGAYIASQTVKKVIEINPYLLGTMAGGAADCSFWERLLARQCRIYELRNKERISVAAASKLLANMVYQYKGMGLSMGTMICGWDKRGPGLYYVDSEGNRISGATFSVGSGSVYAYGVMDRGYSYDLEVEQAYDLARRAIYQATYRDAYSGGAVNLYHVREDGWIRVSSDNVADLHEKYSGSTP

[21] = biological target: T1, Proteasome component C5 (Homo sapiens); experiment: Inhibition of 26S proteasome beta 1 in human HEK293 cell lysate assessed as residual activity at 0.002 uM after 1 hr; type: cell-free
[22] = biological target: T1, Proteasome component C5 (Homo sapiens); experiment: Displacement of fluorescent labeled MV151 from 26S proteasome beta 1 in human HEK293 cell lysate assessed as residual activity at 1 uM after 1 hr by SDS-PAGE; type: cell-free
[23] = biological target: Proteasome Macropain subunit (Homo sapiens) (UniProt P49721); experiment: Inhibition of 26S proteasome beta 2 in human HEK293 cell lysate assessed as residual activity at 0.167 uM after 1 hr; type: cell-free
[24] = biological target: T1, Proteasome component C5 (Homo sapiens); experiment: Inhibition of 26S proteasome beta 1 in human HEK293 cell lysate assessed as residual activity at 13.5 uM after 1 hr; type: cell-free
[25] = biological target: Proteasome Macropain subunit (Homo sapiens) (UniProt P49721); experiment: Inhibition of 26S proteasome beta 2 in human HEK293 cell lysate assessed as residual activity at 0.5 uM after 1 hr; type: cell-free
[26] = biological target: Proteasome subunit beta type-5 (Homo sapiens) (UniProt P28074); experiment: Inhibition of 26S proteasome beta 5 in human HEK293 cell lysate assessed as residual activity at 0.002 uM after 1 hr
[27] = biological target: Proteasome subunit beta type-5 (Homo sapiens) (UniProt P28074); experiment: Inhibition of 26S proteasome beta 5 in human HEK293 cell lysate assessed as residual activity at 0.001 uM after 1 hr
[28] = biological target: Proteasome Macropain subunit (Homo sapiens) (UniProt P49721); experiment: Inhibition of 26S proteasome beta 2 in human HEK293 cell lysate assessed as residual activity at 0.006 uM after 1 hr; type: cell-free
[29] = biological target: Proteasome Macropain subunit (Homo sapiens) (UniProt P49721); experiment: Inhibition of 26S proteasome beta 2 in human HEK293 cell lysate assessed as residual activity at 13.5 uM after 1 hr; type: cell-free
[30] = biological target: Proteasome Macropain subunit (Homo sapiens) (UniProt P49721); experiment: Inhibition of 26S proteasome beta 2 in human HEK293 cell lysate assessed as residual activity at 0.001 uM after 1 hr; type: cell-free
[31] = biological target: T1, Proteasome component C5 (Homo sapiens); experiment: Displacement of fluorescent labeled MV151 from 26S proteasome beta 1 in human HEK293 cell lysate assessed as residual activity at 100 uM after 1 hr by SDS-PAGE; type: cell-free
[32] = biological target: Proteasome Macropain subunit (Homo sapiens) (UniProt P49721); experiment: Displacement of fluorescent labeled MV151 from 26S proteasome beta 2 in human HEK293 cell lysate assessed as residual activity at 1 uM after 1 hr by SDS-PAGE; type: cell-free
[33] = biological target: Proteasome Macropain subunit (Homo sapiens) (UniProt P49721); experiment: as §2; type: cell-free; remark: listed apart in the source
[34] = biological target: T1, Proteasome component C5 (Homo sapiens); experiment: Inhibition of 26S proteasome beta 1 in human HEK293 cell lysate assessed as residual activity at 1.5 uM after 1 hr; type: cell-free
[35] = biological target: Proteasome Macropain subunit (Homo sapiens) (UniProt P49721); experiment: Displacement of fluorescent labeled MV151 from 26S proteasome beta 2 in human HEK293 cell lysate assessed as residual activity at 100 uM after 1 hr by SDS-PAGE; type: cell-free
[36] = biological target: Proteasome subunit beta type-5 (Homo sapiens) (UniProt P28074); experiment: Inhibition of 26S proteasome beta 5 in human HEK293 cell lysate assessed as residual activity at […] after 1 hr; remark: listed apart in the source
[37] = biological target: T1, Proteasome component C5 (Homo sapiens); experiment: Inhibition of 26S proteasome beta 1 in human HEK293 cell lysate assessed as residual activity at 0.167 uM after 1 hr; type: cell-free
[38] = biological target: Proteasome subunit beta type-5 (Homo sapiens) (UniProt P28074); experiment: Inhibition of 26S proteasome beta 5 in human HEK293 cell lysate assessed as residual activity at 0.019 uM after 1 hr
[39] = biological target: Proteasome subunit beta type-5 (Homo sapiens) (UniProt P28074); experiment: Inhibition of 26S proteasome beta 5 in human HEK293 cell lysate assessed as residual activity at 0.006 uM after 1 hr
[40] = biological target: Proteasome Macropain subunit (Homo sapiens) (UniProt P49721); experiment: Inhibition of 26S proteasome beta 2 in human HEK293 cell lysate assessed as residual activity at 0.002 uM after 1 hr; type: cell-free
[41] = biological target: T1, Proteasome component C5 (Homo sapiens); experiment: as §1; type: cell-free; remark: listed apart in the source
[42] = biological target: Proteasome subunit beta type-5 (Homo sapiens) (UniProt P28074); experiment: Inhibition of 26S proteasome beta 5 in human HEK293 cell lysate assessed as residual activity at 1.5 uM after 1 hr
[43] = biological target: Proteasome subunit beta type-5 (Homo sapiens) (UniProt P28074); experiment: Inhibition of 26S proteasome beta 5 in human HEK293 cell lysate assessed as residual activity at 0.5 uM after 1 hr
[44] = biological target: T1, Proteasome component C5 (Homo sapiens); experiment: Inhibition of 26S proteasome beta 1 in human HEK293 cell lysate assessed as residual activity at 0.001 uM after 1 hr; type: cell-free
[45] = biological target: T1, Proteasome component C5 (Homo sapiens); experiment: Inhibition of 26S proteasome beta 1 in human HEK293 cell lysate assessed as residual activity at 0.019 uM after 1 hr; type: cell-free
[46] = biological target: Proteasome subunit beta type-5 (Homo sapiens) (UniProt P28074); experiment: Inhibition of 26S proteasome beta 5 in human HEK293 cell lysate assessed as residual activity at 0.167 uM after 1 hr
[47] = biological target: T2, Proteasome Macropain subunit MB1 (Homo sapiens); experiment: Displacement of fluorescent labeled MV151 from 26S proteasome beta 5 in human HEK293 cell lysate assessed as residual activity at 1 uM after 1 hr by SDS-PAGE; type: cell-free
[48] = biological target: Proteasome Macropain subunit (Homo sapiens) (UniProt P49721); experiment: Inhibition of 26S proteasome beta 2 in human HEK293 cell lysate assessed as residual activity at 1.5 uM after 1 hr; type: cell-free
[49] = biological target: T1, Proteasome component C5 (Homo sapiens); experiment: Inhibition of 26S proteasome beta 1 in human HEK293 cell lysate assessed as residual activity at 0.5 uM after 1 hr; type: cell-free
[50] = biological target: Proteasome Macropain subunit (Homo sapiens) (UniProt P49721); experiment: Inhibition of 26S proteasome beta 2 in human HEK293 cell lysate assessed as residual activity at 0.019 uM after 1 hr; type: cell-free
[51] = biological target: Proteasome subunit beta type-5 (Homo sapiens) (UniProt P28074); experiment: Inhibition of 26S proteasome beta 5 in human HEK293 cell lysate assessed as residual activity at 13.5 uM after 1 hr

Sequence of Proteasome Macropain subunit (Homo sapiens) (P49721 whole entry): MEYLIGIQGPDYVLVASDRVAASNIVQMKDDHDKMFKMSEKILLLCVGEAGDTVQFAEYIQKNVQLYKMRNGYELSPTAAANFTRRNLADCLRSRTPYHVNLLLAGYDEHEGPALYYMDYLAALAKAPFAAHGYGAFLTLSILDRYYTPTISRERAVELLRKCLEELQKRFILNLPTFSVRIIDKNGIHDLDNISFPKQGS

Activity [1]: 76.5%
Activity [2]: 98.4%
Activity [3]: 106%
Activity [4]: 107%
Activity [5]: 124%
Activity [6]: 25.3%
Activity [7]: 134%
Activity [8]: 89.7%
Activity [9]: 111%
Activity [10]: 117%
Activity [11]: 102%
Activity [12]: 120%
Activity [13]: 45.8%
Activity [14]: 100%
Activity [15]: 18%
Activity [16]: 141%
Activity [17]: 8.3%
Activity [18]: 101%
Structure (SMILES): CC1=CC(C)=[N+]2C1=C(CCCCc1cn([C@@H](Cc3ccccc3)C(=O)N[C@@H](Cc3ccccc3)C(=O)N[C@@H](Cc3c(F)c(F)c(F)c(F)c3F)C(=O)N[C@@H](CC(C)C)C(=O)[C@@]3(C)CO3)nn1)c1c(C)cc(C)n1[B-]2(F)F

Activity [19]: 96.9%
Activity [20]: 3%
Activity [21]: 92.8%
Activity [22]: 167%
Activity [23]: 98.4%
Activity [24]: 61.3%
Activity [25]: 110%
Activity [26]: 101%
Activity [27]: 116%
Activity [28]: 100%
Activity [29]: 73.4%
Activity [30]: 118%
Activity [31]: 80%
Activity [2]: 90.3%
Activity [32]: 3.1%
Activity [33]: 105%
Activity [3]: 92.9%
Activity [34]: 104%
Activity [35]: 128%
Activity [36]: 70.5%
Activity [37]: 85.7%
Activity [38]: 94.4%
Activity [39]: 93.5%
Activity [40]: 104%
Activity [41]: 116%
Activity [42]: 9.8%
Activity [43]: 20.5%
Activity [13]: 11%
Activity [44]: 112%
Activity [45]: 94.7%
Activity [46]: 44.3%
Activity [47]: 78%
Activity [48]: 113%
Activity [49]: 104%
Activity [50]: 100%
Activity [51]: 5.1%
Structure (SMILES): CC(C)C[C@H](NC(=O)[C@H](Cc1ccccc1)NC(=O)[C@H](Cc1cc(C(F)(F)F)cc(C(F)(F)F)c1)NC(=O)[C@H](Cc1ccccc1)N=[N+]=[N-])C(=O)[C@@]1(C)CO1
